Assays:
SJSA-1 = experiment: Cell proliferation inhibition (CCK-8) against SJSA-1; format: cell-based; conditions: SJSA-1 human osteosarcoma cells, 5 days
Method: Cellular data of selected compounds against SW480 and SJSA-1 was conducted according to the following protocol.
Cells in the logarithmic growth phase were seeded into 96-well plates (Corning, 3599; 180 μL/well; 3000 cells/well for both SW480 and SJSA-1 cell lines) and cultured in an incubator (Thermo, 3111) for 24 h. Cells were then treated in triplicate by adding 20 μL/well solution containing different concentrations of the tested compounds in 5% CO2 at 37° C. for 5 days. After that, cells were treated for additional 4 h by adding 10 μL/well Cell Counting Kit-8 (CCK-8; DojinDo, CK04) solution. Finally, the absorbance was read at 450 nm with a microplate reader spectra-MAX190 (Molecular Devices, Sunnyvale, Calif.). The IC50 value was determined with SofeMax Pro, a software equipped in this reader. The cell proliferation inhibition rate was calculated as: proliferation inhibition (%)=[1-(A450 treated/A450 control)]×100%.
All the tested compounds could be dissolved in DMSO at 10^−2 M (as stock solution). […] The compounds were diluted at 9 3-fold serial concentrations beginning at the initial concentration of 10 μM (i.e., the highest final concentration to treat the cells). The detailed drug dilution protocol is: Add 5 μL stock solution (10^−2 M) into 495 μL medium, transfer 125 μL of the resulting solution (100 μM) into 250 μL medium, and repeat this till the 9th resulting concentration of 15.2 nM. Pipet 20 μL of each drug dilution into cell plates.

GST-tag full length MDM2 = GST-tag full length MDM2 (Homo sapiens (Human), UniProt Q00987); experiment: MDM2-p53 TR-FRET Binding Assays; conditions: MDM2 / biotin p53 peptide
Description: MDM2-p53 TR-FRET Binding Assays
Examples are listed in the following.

Chain of GST-tag full length MDM2 (Q00987 whole entry): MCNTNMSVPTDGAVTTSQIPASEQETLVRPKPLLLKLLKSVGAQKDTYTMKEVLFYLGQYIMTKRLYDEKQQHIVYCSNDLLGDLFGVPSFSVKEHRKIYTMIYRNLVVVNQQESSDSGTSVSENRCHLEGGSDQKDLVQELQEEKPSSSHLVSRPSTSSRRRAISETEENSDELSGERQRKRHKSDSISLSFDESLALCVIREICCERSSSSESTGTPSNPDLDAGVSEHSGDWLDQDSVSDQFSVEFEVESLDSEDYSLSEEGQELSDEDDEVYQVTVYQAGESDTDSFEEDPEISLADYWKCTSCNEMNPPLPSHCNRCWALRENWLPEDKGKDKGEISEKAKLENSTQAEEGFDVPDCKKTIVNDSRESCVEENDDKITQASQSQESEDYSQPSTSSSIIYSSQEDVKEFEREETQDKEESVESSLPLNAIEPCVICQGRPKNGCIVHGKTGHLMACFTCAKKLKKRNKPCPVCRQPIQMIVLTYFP

SMILES	IC50 (SJSA-1; Homo sapiens, SJSA-1, 120 h) [nM]	IC50 (GST-tag full length MDM2) [nM]	IC50 (SJSA-1) [nM]
COc1cc(C(=O)O)ccc1NC(=O)[C@@H]1N[C@@H](C[C@H](C)C(F)(F)F)[C@@]2(C(=O)Nc3cc(Cl)ccc32)[C@H]1c1cccc(Cl)c1F (racemic) [Example 10, 4-[[(2′R,3R,3′S,5′S)-6-chloro-3′-(3-chloro-2-fluoro-phenyl)-2-oxo-5′-[(2S)-3,3,3-trifluoro-2-methyl-propyl]spiro[indoline-3,4′-pyrrolidine]-2′-carbonyl]amino]-3-methoxy-benzoic acid]	≤ 71	≤ 7.2	–
COc1cc(C(=O)O)ccc1NC(=O)[C@@H]1N[C@@H](C[C@@H](C)C(F)(F)F)[C@@]2(C(=O)Nc3cc(Cl)ccc32)[C@H]1c1cccc(Cl)c1F (racemic) [Example 11, 4-[[(2′R,3R,3′S,5′S)-6-chloro-3′-(3-chloro-2-fluoro-phenyl)-2-oxo-5′-[(2R)-3,3,3-trifluoro-2-methyl-propyl]spiro[indoline-3,4′-pyrrolidine]-2′-carbonyl]amino]-3-methoxy-benzoic acid]	≤ 71	≤ 7.2	–
COc1cc(C(N)=O)ccc1NC(=O)[C@@H]1N[C@@H](C[C@H](C)C(F)(F)F)[C@@]2(C(=O)Nc3cc(Cl)ccc32)[C@H]1c1cccc(Cl)c1F (racemic) [Example 12, (2′R,3R,3′S,5′S)-N-(4-carbamoyl-2-methoxy-phenyl)-6-chloro-3′-(3-chloro-2-fluoro-phenyl)-2-oxo-5′-[(2S)-3,3,3-trifluoro-2-methyl-propyl]spiro[indoline-3,4′-pyrrolidine]-2′-carboxamide]	≤ 71	≤ 7.2	–
COc1cc(C(N)=O)ccc1NC(=O)[C@@H]1N[C@@H](C[C@@H](C)C(F)(F)F)[C@@]2(C(=O)Nc3cc(Cl)ccc32)[C@H]1c1cccc(Cl)c1F (racemic) [Example 13, (2′R,3R,3′S,5′S)-N-(4-carbamoyl-2-methoxy-phenyl)-6-chloro-3′-(3-chloro-2-fluoro-phenyl)-2-oxo-5′-[(2R)-3,3,3-trifluoro-2-methyl-propyl]spiro[indoline-3,4′-pyrrolidine]-2′-carboxamide]	≤ 71	≤ 7.2	–
COc1cc(C(=O)O)ccc1NC(=O)[C@@H]1N[C@@H](CC(C)(C)CF)[C@@]2(C(=O)Nc3cc(Cl)ccc32)C1c1cccc(Cl)c1F (mixture of isomers) [Example 19, 4-[(2′R,3R,3′S,5′S)-6-chloro-3′-(3-chloro-2-fluoro-phenyl)-5′-(3-fluoro-2,2-dimethyl-propyl)-2-oxo-spiro[indoline-3,4′-pyrrolidine]-2′-carbonyl]amino-3-methoxy-benzoic acid]	≤ 71	≤ 3.6	–
COc1cc(C(N)=O)ccc1NC(=O)[C@@H]1N[C@@H](CC(C)(C)CF)[C@@]2(C(=O)Nc3cc(Cl)ccc32)C1c1cccc(Cl)c1F (mixture of isomers) [Example 20, (4-carbamoyl-2-methoxy-phenyl) (2′R,3R,3′S,5′S)-6-chloro-3′-(3-chloro-2-fluoro-phenyl)-5′-(3-fluoro-2,2-dimethyl-propyl)-2-oxo-spiro[indoline-3,4′-pyrrolidine]-2′-carboxamide]	≤ 71	≤ 3.6	–
COc1cc(C(N)=O)ccc1NC(=O)[C@@H]1N[C@@H](CC(C)(C)CF)[C@@]2(C(=O)Nc3cc(Cl)ccc32)C1c1cccc(Cl)c1F (single isomer, unassigned) [Example 22]	≤ 20	≤ 3.6	–
CCOC(=O)c1ccc(NC(=O)[C@@H]2N[C@@H](C[C@H](C)C(F)(F)F)[C@@]3(C(=O)Nc4cc(Cl)ccc43)[C@H]2c2cccc(Cl)c2F)c(OC)c1 [Example 9b, ethyl 4-[[(2′R,3R,3′S,5′S)-6-chloro-3′-(3-chloro-2-fluoro-phenyl)-2-oxo-5′-[(2S)-3,3,3-trifluoro-2-methyl-propyl]spiro[indoline-3,4′-pyrrolidine]-2′-carbonyl]amino]-3-methoxy-benzoate]	71 to 550	–	–
COc1cc(C(=O)O)ccc1NC(=O)[C@@H]1N[C@@H](CC(C)(C)CF)[C@@]2(C(=O)Nc3cc(Cl)ccc32)[C@H]1c1cccc(Cl)c1F [Example 21, 4-[(2′R,3R,3′S,5′S)-6-chloro-3′-(3-chloro-2-fluoro-phenyl)-5′-(3-fluoro-2,2-dimethyl-propyl)-2-oxo-spiro[indoline-3,4′-pyrrolidine]-2′-carbonyl]amino-3-methoxy-benzoic acid]	≤ 20	≤ 3.6	–
CCOC(=O)c1ccc(NC(=O)[C@@H]2N[C@@H](C[C@@H](C)C(F)(F)F)[C@@]3(C(=O)Nc4cc(Cl)ccc43)[C@H]2c2cccc(Cl)c2F)c(OC)c1 [Example 26, ethyl-4-[[(2′R,3′R,3′S,5′S)-6-chloro-3′(3-chloro-2-fluoro-phenyl)-2-oxo-5′-[(2R)-3,3,3-trifluoro-2-methyl-propyl]spiro[indoline-2,4′-pyrrolidine]-2′-carbonyl]amino]-3-methoxy-benzoate]	–	≤ 7.2	≤ 500
COc1cc(C(=O)O)ccc1NC(=O)[C@@H]1N[C@@H](C[C@@H](C)C(F)(F)F)[C@@]2(C(=O)Nc3cc(Cl)ccc32)[C@H]1c1cccc(Cl)c1F [Example 27, 4-[[(2′R,3R,3′S,5′S)-6-chloro-3′-(3-chloro-2-fluoro-phenyl)-2-oxo-5′-[(2R)-3,3,3-trifluoro-2-methyl-propyl]spiro[indoline-3,4′-pyrrolidine]-2′-carbonyl]amino]-3-methoxy-benzoic acid]	≤ 20	≤ 3.6	–
COc1cc(C(N)=O)ccc1NC(=O)[C@@H]1N[C@@H](C[C@@H](C)C(F)(F)F)[C@@]2(C(=O)Nc3cc(Cl)ccc32)[C@H]1c1cccc(Cl)c1F [Example 28, (2′R,3R,3′S,5′S)-N-(4-carbamoyl-2-methoxy-phenyl)-6-chloro-3′-(3-chloro-2-fluoro-phenyl)-2-oxo-5′-[(2R)-3,3,3-trifluoro-2-methyl-propyl]spiro[indoline-3,4′-pyrrolidine]-2′-carboxamide]	≤ 20	≤ 3.6	–
COc1cc(C(=O)O)ccc1NC(=O)[C@@H]1N[C@@H](C[C@H](C)C(F)(F)F)[C@@]2(C(=O)Nc3cc(Cl)ccc32)[C@H]1c1cccc(Cl)c1F [Example 65, 4-[[(2′R,3R,3′S,5′S)-6-chloro-3′-(3-chloro-2-fluoro-phenyl)-2-oxo-5′-[(2S)-3,3,3-trifluoro-2-methyl-propyl]spiro[indoline-3,4′-pyrrolidine]-2′-carbonyl]amino]-3-methoxy-benzoic acid]	≤ 20	≤ 3.6	–
COc1cc(C(N)=O)ccc1NC(=O)[C@@H]1N[C@@H](C[C@H](C)C(F)(F)F)[C@@]2(C(=O)Nc3cc(Cl)ccc32)[C@H]1c1cccc(Cl)c1F [Example 66, (2′R,3R,3′S,5′S)-N-(4-carbamoyl-2-methoxy-phenyl)-6-chloro-3′-(3-chloro-2-fluoro-phenyl)-2-oxo-5′-[(2S)-3,3,3-trifluoro-2-methyl-propyl]spiro[indoline-3,4′-pyrrolidine]-2′-carboxamide]	≤ 20	≤ 3.6	–
COC(=O)c1ccc(NC(=O)[C@@H]2N[C@@H](CC3(CF)CC3)C3(C(=O)Nc4cc(Cl)ccc43)[C@H]2c2cccc(Cl)c2F)c(OC)c1 (stereo partly shown) [Example 73, 4-{[6-chloro-4′-(3-chloro-2-fluoro-phenyl)-2′-(1-fluoromethyl-cyclopropylmethyl)-2-oxo-1,2-dihydro-spiro[indole-3,3′-pyrrolidin]e-5′-carbonyl]-amino}-3-methoxy-benzoic acid methyl ester]	–	≤ 7.2	–
COc1cc(C(=O)O)ccc1NC(=O)[C@@H]1N[C@@H](CC2(CF)CC2)C2(C(=O)Nc3cc(Cl)ccc32)[C@H]1c1cccc(Cl)c1F (stereo partly shown) [Example 74, 4-{[6-chloro-4′-(3-chloro-2-fluoro-phenyl)-2′-(1-fluoromethyl-cyclopropylmethyl)-2-oxo-1,2-dihydro-spiro[indole-3,3′-pyrrolidin]e-5′-carbonyl]-amino}-3-methoxy-benzoic acid]	≤ 20	≤ 7.2	–
COc1cc(C(N)=O)ccc1NC(=O)[C@@H]1N[C@@H](CC2(CF)CC2)C2(C(=O)Nc3cc(Cl)ccc32)[C@H]1c1cccc(Cl)c1F (stereo partly shown) [Example 75, 6-chloro-4′-(3-chloro-2-fluoro-phenyl)-2′-(1-fluoromethyl-cyclopropylmethyl)-2-oxo-1,2-dihydro-spiro[indole-3,3′-pyrrolidine]-5-carboxylic acid (4-carbamoyl-2-methoxy-phenyl)-amide]	≤ 20	≤ 7.2	–
COc1cc(C(=O)O)ccc1NC(=O)[C@@H]1N[C@@H](CC2(CF)CC2)[C@@]2(C(=O)Nc3cc(Cl)ccc32)[C@H]1c1cccc(Cl)c1F [Example 76, 4-[[(2′R,3R,3′S,5′S)-6-chloro-3′-(3-chloro-2-fluoro-phenyl)-5′-[[1-(fluoromethyl)cyclopropyl]methyl]-2-oxo-spiro[indoline-3,4′-pyrrolidine]-2′-carbonyl]amino]-3-methoxy-benzoic acid]	≤ 20	≤ 7.2	–
